The results in this text go back to patent US9321718B2 (CHROMA THERAPEUTICS LTD., priority 2010, dated 2016).

Assay [1] addresses T1, human recombinant his-tagged HSP90α (Homo sapiens, UniProt P07900).
T1 construct: purchased Prospec Technogene #HSP90
As to the kind of experiment: HSP90 enzyme assay (HTRF, competition with biotinylated Geldanamycin). The class given is binding. The note with it: IC50 range; read-out: Enzyme Assay. Summed up:
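HTRF competition: compounds (5000 to 0.3 nM, 0.5% DMSO) displace 40 nM biotinylated geldanamycin from 40 nM his-tagged HSP90α. Binding was read via Eu-cryptate anti-his/streptavidin-XL FRET after 20 h at room temperature in Hepes pH 7.3 buffer. IC50 was fitted against controls.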

Assay [2] concerns TNFα release from LPS stimulated THP-1 (hCE-1 +ve) cells. As to the kind of experiment: LPS-stimulation of THP-1 cells (TNF-α release). It counts as cell-based, human. The conditions noted are these: IC50 range, TNF-α after LPS 1 μg/ml, 6 hours, read-out: THP-1 Assay. As to the method:
THP-1 cells are plated in […] at a density of 4×10^4 cells/well in V-bottomed 96 well tissue culture treated plates and incubated at 37° C. in 5% CO2 for 16 hours. 2 Hours after the addition of the inhibitor in 100 μl of tissue culture media, the cells are stimulated with LPS (E. Coli strain 005:B5, Sigma) at a final concentration of 1 μg/ml and incubated at 37° C. in 5% CO2 for 6 hours. TNF-α levels are measured from cell-free supernatants by sandwich ELISA (R&D Systems #QTA00B).

In assay [3] the test system is TNF-α levels in LPS-stimulated human whole blood. As to the kind of experiment: LPS-stimulation of human whole blood (TNF-α levels). It counts as cell-based. The conditions noted are these: Homo sapiens; IC50 range; TNF-α after LPS 100 ng/ml, 6 hours. As to the method:
Whole blood is taken by venous puncture using heparinised vacutainers (Becton Dickinson) and diluted in an equal volume of RPMI1640 tissue culture media (Sigma). 100 μl is then plated in V-bottomed 96 well tissue culture treated plates. 2 Hours after the addition of the inhibitor in 100 μl of RPMI1640 media, the blood is stimulated with LPS (E. Coli strain 005:B5, Sigma) at a final concentration of 100 ng/ml and incubated at 37° C. in 5% CO2 for 6 hours. TNF-α levels are measured from cell-free supernatants by sandwich ELISA (R&D Systems #QTA00B).

pIC50: −log10 of the molar value. Where two headings read alike, the source gives them in different places. A value given as a limit tells only on which side of the number the result lay.

As for `CC(C)c1cc(C(=O)N2CCC(NC(C)(C)C(=O)OC3CCCC3)CC2)c(O)cc1O` [Example 2, cyclopentyl N-(1-{[2,4-dihydroxy-5-(propan-2-yl)phenyl]carbonyl}piperidin-4-yl)-2-methylalaninate], the pIC50 in assay [1] is > 7.00; in assay [2] (Homo sapiens, THP-1), 6.00 to 7.00; in assay [3], 6.00 to 7.00.

In the case of `CC(C)c1cc(C(=O)N2CCC(N[C@H](C(=O)OC3CCCC3)c3ccccc3)CC2)c(O)cc1O` [Example 4, cyclopentyl (2S)-[(1-{[2,4-dihydroxy-5-(propan-2-yl)phenyl]carbonyl}piperidin-4-yl)amino](phenyl)ethanoate], the pIC50 in assay [1] was > 7.00; in assay [2] (Homo sapiens, THP-1), < 6.00; in assay [3], < 6.00.

As to `CC(C)c1cc(C(=O)N2CCC(N[C@@H](C)C(=O)OC3CCCC3)CC2)c(O)cc1O` [Example 5, cyclopentyl N-(1-{[2,4-dihydroxy-5-(propan-2-yl)phenyl]carbonyl}piperidin-4-yl)-L-alaninate], the pIC50 is > 7.00 in assay [1]; 6.00 to 7.00 in assay [2] (Homo sapiens, THP-1); 6.00 to 7.00 in assay [3].

Take `CC(C)c1cc(C(=O)N2CCC(N[C@@H](Cc3ccccc3)C(=O)OC3CCCC3)CC2)c(O)cc1O` [Example 9, cyclopentyl N-(1-{[2,4-dihydroxy-5-(propan-2-yl)phenyl]carbonyl}piperidin-4-yl)-L-phenylalaninate]: the pIC50 in assay [1] is > 7.00; in assay [2] (Homo sapiens, THP-1), 6.00 to 7.00; in assay [3], 6.00 to 7.00.

Regarding `CCCC[C@H](NC1CCN(C(=O)c2cc(C(C)C)c(O)cc2O)CC1)C(=O)OC1CCCC1` [Example 10, cyclopentyl N-(1-{[2,4-dihydroxy-5-(propan-2-yl)phenyl]carbonyl}piperidin-4-yl)-L-norleucinate], the pIC50 in assay [1] was > 7.00; in assay [2] (Homo sapiens, THP-1) it was 6.00 to 7.00; in assay [3], < 6.00.

Consider `CC(C)c1cc(C(=O)N2CCC(N[C@@H](CC3CCCCC3)C(=O)OC3CCCC3)CC2)c(O)cc1O` [Example 13, cyclopentyl 3-cyclohexyl-N-(1-{[2,4-dihydroxy-5-(propan-2-yl)phenyl]carbonyl}piperidin-4-yl)-L-alaninate], for which the pIC50 in assay [1] is > 7.00; in assay [2] (Homo sapiens, THP-1), 6.00 to 7.00; in assay [3], > 7.00.

As for `CC(C)C[C@H](NC1CCN(C(=O)c2cc(C(C)C)c(O)cc2O)C1)C(=O)OC1CCCC1` (stereo partly drawn) [Example 20, cyclopentyl N-(1-{[2,4-dihydroxy-5-(propan-2-yl)phenyl]carbonyl}pyrrolidin-3-yl)-L-leucinate], the pIC50 in assay [1] was > 7.00; in assay [2] (Homo sapiens, THP-1), < 6.00; in assay [3], < 6.00.

On to `CC(C)C[C@H](NCC1CCN(C(=O)c2cc(C(C)C)c(O)cc2O)CC1)C(=O)OC1CCCC1` [Example 21, cyclopentyl N-[(1-{[2,4-dihydroxy-5-(propan-2-yl)phenyl]carbonyl}piperidin-4-yl)methyl]-L-leucinate], for which the pIC50 in assay [1] is > 7.00; in assay [2] (Homo sapiens, THP-1), > 7.00; in assay [3] it was 6.00 to 7.00.

Consider `CC(C)c1cc(C(=O)N2CCC(CN[C@@H](C)C(=O)OC3CCCC3)CC2)c(O)cc1O` [Example 22, cyclopentyl N-[(1-{[2,4-dihydroxy-5-(propan-2-yl)phenyl]carbonyl}piperidin-4-yl)methyl]-L-alaninate], for which the pIC50 in assay [1] is > 7.00; in assay [2] (Homo sapiens, THP-1), > 7.00; in assay [3] it was > 7.00.

For the compound `CC(C)c1cc(C(=O)N2CCC(CN[C@@H](Cc3ccccc3)C(=O)OC3CCCC3)CC2)c(O)cc1O` [Example 23, cyclopentyl N-[(1-{[2,4-dihydroxy-5-(propan-2-yl)phenyl]carbonyl}piperidin-4-yl)methyl]-L-phenylalaninate], the pIC50 in assay [1] was > 7.00; in assay [2] (Homo sapiens, THP-1) it was 6.00 to 7.00; in assay [3] it was 6.00 to 7.00.

With `CC(C)C[C@@H](NCC1CCN(C(=O)c2cc(C(C)C)c(O)cc2O)CC1)C(=O)OC(C)(C)C` [Example 27, tert-butyl N-[(1-{[2,4-dihydroxy-5-(propan-2-yl)phenyl]carbonyl}piperidin-4-yl)methyl]-D-leucinate], the pIC50 in assay [1] is > 7.00; in assay [2] (Homo sapiens, THP-1) it was < 6.00.

For the compound `CC(C)C[C@@H](NCC1CCN(C(=O)c2cc(C(C)C)c(O)cc2O)CC1)C(=O)OC1CCCC1` [Example 28, cyclopentyl N-[(1-{[2,4-dihydroxy-5-(propan-2-yl)phenyl]carbonyl}piperidin-4-yl)methyl]-D-leucinate], the pIC50 in assay [1] was > 7.00; in assay [2] (Homo sapiens, THP-1), 6.00 to 7.00; in assay [3], 6.00 to 7.00.

Consider `CC(C)c1cc(C(=O)N2CCC(CN[C@H](C(=O)OC3CCCC3)C3CCCCC3)CC2)c(O)cc1O` [Example 30, cyclopentyl (2S)-cyclohexyl{[(1-{[2,4-dihydroxy-5-(propan-2-yl)phenyl]carbonyl}piperidin-4-yl)methyl]amino}ethanoate], for which the pIC50 in assay [1] is 6.00 to 7.00; in assay [2] (Homo sapiens, THP-1) it was < 6.00.

With `CC(C)c1cc(C(=O)N2CCC(CNC(C)(C)C(=O)OC3CCCC3)CC2)c(O)cc1O` [Example 32, cyclopentyl N-[(1-{[2,4-dihydroxy-5-(propan-2-yl)phenyl]carbonyl}piperidin-4-yl)methyl]-2-methyl-L-alaninate], the pIC50 in assay [1] was > 7.00; in assay [2] (Homo sapiens, THP-1), 6.00 to 7.00; in assay [3], 6.00 to 7.00.

In the case of `CC(C)c1cc(C(=O)N2CCC(CN[C@@H](COC(C)(C)C)C(=O)OC(C)(C)C)CC2)c(O)cc1O` [Example 35, tert-butyl O-tert-butyl-N-[(1-{[2,4-dihydroxy-5-(propan-2-yl)phenyl]carbonyl}piperidin-4-yl)methyl]-L-serinate], the pIC50 in assay [1] was > 7.00; in assay [2] (Homo sapiens, THP-1), < 6.00.

Turning to `CC(C)c1cc(C(=O)N2CCC(CN[C@@H](CO)C(=O)OC(C)(C)C)CC2)c(O)cc1O` [Example 37, tert-butyl N-[(1-{[2,4-dihydroxy-5-(propan-2-yl)phenyl]carbonyl}piperidin-4-yl)methyl]-L-serinate], the pIC50 in assay [1] was > 7.00; in assay [2] (Homo sapiens, THP-1) it was 6.00 to 7.00.

For `CC(C)c1cc(C(=O)N2CCC(CCN[C@@H](C)C(=O)OC3CCCC3)CC2)c(O)cc1O` [Example 39, cyclopentyl N-[2-(1-{[2,4-dihydroxy-5-(propan-2-yl)phenyl]carbonyl}piperidin-4-yl)ethyl]-L-alaninate], the pIC50 in assay [1] was > 7.00; in assay [2] (Homo sapiens, THP-1) it was > 7.00.

For the compound `CC(C)C[C@H](NCCC1CCN(C(=O)c2cc(C(C)C)c(O)cc2O)CC1)C(=O)OC(C)(C)C` [Example 42, tert-butyl N-[2-(1-{[2,4-dihydroxy-5-(propan-2-yl)phenyl]carbonyl}piperidin-4-yl)ethyl]-L-leucinate], the pIC50 in assay [1] is > 7.00; in assay [2] (Homo sapiens, THP-1), 6.00 to 7.00.

On to `CC(C)c1cc(C(=O)N2CCC(CCN[C@H](C(=O)OC3CCCC3)C(C)C)CC2)c(O)cc1O` [Example 46, cyclopentyl N-[2-(1-{[2,4-dihydroxy-5-(propan-2-yl)phenyl]carbonyl}piperidin-4-yl)ethyl]-L-valinate], for which the pIC50 in assay [1] is > 7.00; in assay [2] (Homo sapiens, THP-1) it was < 6.00.

On to `CC(C)c1cc(C(=O)N2CCC(CCN[C@@H](CO)C(=O)OC3CCCC3)CC2)c(O)cc1O` [Example 47, cyclopentyl N-[2-(1-{[2,4-dihydroxy-5-(propan-2-yl)phenyl]carbonyl}piperidin-4-yl)ethyl]-L-serinate], for which the pIC50 is > 7.00 in assay [1] and 6.00 to 7.00 in assay [2] (Homo sapiens, THP-1).

As for `CC(C)c1cc(C(=O)N2CCC(CCN[C@H](C(=O)OC3CCCC3)C3CCCCC3)CC2)c(O)cc1O` [Example 48, cyclopentyl (2S)-cyclohexyl{[2-(1-{[2,4-dihydroxy-5-(propan-2-yl)phenyl]carbonyl}piperidin-4-yl)ethyl]amino}ethanoate], the pIC50 in assay [1] was 6.00 to 7.00; in assay [2] (Homo sapiens, THP-1), < 6.00.

`CC(C)c1cc(C(=O)N2CCC(CCN[C@H](C(=O)OC3CCCC3)c3ccccc3)CC2)c(O)cc1O` [Example 51, cyclopentyl (2S)-{[2-(1-{[2,4-dihydroxy-5-(propan-2-yl)phenyl]carbonyl}piperidin-4-yl)ethyl]amino}(phenyl)ethanoate]: the pIC50 in assay [1] is > 7.00; in assay [2] (Homo sapiens, THP-1), 6.00 to 7.00.

For the compound `CC(C)C[C@H](NCCCNCC1CCN(C(=O)c2cc(C(C)C)c(O)cc2O)CC1)C(=O)OC1CCCC1` [Example 126], the pIC50 is > 7.00 in assay [1] and < 6.00 in assay [2] (Homo sapiens, THP-1).

As for “cyclopentyl N-[(1-{[2,4-dihydroxy-5-(propan-2-yl)phenyl]carbonyl}piperidin-4-yl)methyl]-L-valinate [Example 29]”, the results for the pIC50 in assay [1] and in assay [2] were > 7.00 and < 6.00, respectively.
